Reference: US8722580B2, “Agent for inhibiting cytokinin signaling” (Sumitomo Chemical Company, Limited, priority 2006, dated 2014)

Legend:
[1] = molecular target: T1, cytokinin receptor CRE1 (Arabidopsis thaliana, UniProt Q9C5U0, S567G/T1018A); assay: Inhibition of intracellular signaling from plant-derived cytokinin receptor, growth of transformed yeast cell TM182-CRE1; format: cell-based; conditions: for inhibition at 2 ppm: read-out: Activity (%) of test substance for inhibiting intracellular signaling from plant-derived cytokinin receptor of cell; for Relative growth rate (%) in test section of test substance to control section, Transformed cell TM182-CRE1 / Activity (%) of test substance for inhibiting intracellular signaling from plant-derived cytokinin receptor of cell: trans-zeatin 0.6 ppm, chemical substance 2 ppm; for Relative growth rate (%) in test section of test substance to control section, Transformed cell TM182-CRE1: 30° C., 24 hours, turbidity OD 600; for Activity (%) of test substance for inhibiting intracellular signaling from plant-derived cytokinin receptor of cell: = 100 − relative growth rate of TM182-CRE1
T1 construct: expressed in transfected cells; host or cells: Saccharomyces cerevisiae TM182 (sln1Δ) transformed with p415CYC-CRE1
T1 sequence (Q9C5U0 24-1080 S567G/T1018A): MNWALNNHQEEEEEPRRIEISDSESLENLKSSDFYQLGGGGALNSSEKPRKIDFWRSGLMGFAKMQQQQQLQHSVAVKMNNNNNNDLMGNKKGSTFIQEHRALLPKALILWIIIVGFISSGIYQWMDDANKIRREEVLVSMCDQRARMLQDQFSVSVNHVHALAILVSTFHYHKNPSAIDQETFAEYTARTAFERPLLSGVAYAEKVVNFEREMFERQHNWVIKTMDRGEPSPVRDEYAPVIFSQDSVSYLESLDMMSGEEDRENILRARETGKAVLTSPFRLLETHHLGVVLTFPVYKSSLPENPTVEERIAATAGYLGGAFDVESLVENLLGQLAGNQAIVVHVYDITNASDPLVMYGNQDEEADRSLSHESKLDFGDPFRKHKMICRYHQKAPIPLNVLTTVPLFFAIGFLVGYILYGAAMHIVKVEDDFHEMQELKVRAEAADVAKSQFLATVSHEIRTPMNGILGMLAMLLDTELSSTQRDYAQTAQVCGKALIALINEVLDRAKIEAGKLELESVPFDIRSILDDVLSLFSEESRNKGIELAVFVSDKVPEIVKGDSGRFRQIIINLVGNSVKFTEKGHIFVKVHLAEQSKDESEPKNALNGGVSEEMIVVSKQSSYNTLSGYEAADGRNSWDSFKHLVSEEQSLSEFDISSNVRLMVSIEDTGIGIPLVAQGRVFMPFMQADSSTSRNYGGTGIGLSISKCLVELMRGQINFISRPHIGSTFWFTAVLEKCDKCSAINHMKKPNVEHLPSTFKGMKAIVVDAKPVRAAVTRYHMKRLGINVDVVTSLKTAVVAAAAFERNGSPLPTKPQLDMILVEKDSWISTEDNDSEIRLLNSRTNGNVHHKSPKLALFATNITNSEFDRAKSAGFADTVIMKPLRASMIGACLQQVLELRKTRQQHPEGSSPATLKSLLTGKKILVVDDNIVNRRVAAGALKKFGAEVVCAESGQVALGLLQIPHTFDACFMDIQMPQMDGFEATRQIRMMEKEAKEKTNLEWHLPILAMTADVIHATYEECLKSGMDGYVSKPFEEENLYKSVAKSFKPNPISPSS
Protocol: (§1) The transformed cell TM182-CRE1 and the transformed cell TM182-p415CYC1 obtained in Example 6 were each inoculated in 10 ml of a DOLU+Gal medium, and preincubated at 30° C. for 18 hours to obtain a preincubation liquid for each of the transformed cells. The preincubation liquid was diluted with a DOLU+Glu medium for the transformed cell TM182-CRE1 or with a DOLU+Gal medium for the transformed cell TM182-p415CYC1 until OD600=0.1 was reached, to obtain a preincubation dilution for each of the transformed cells.
(§2) To each well of a 96-well plate was added 1 μl of a 200 ppm solution of a test substance in dimethyl sulfoxide (DMSO) to prepare an Assay plate. At the same time, as controls, only 1 μl of DMSO was added to a part of wells. An assay plate for the transformed cell TM182-CRE1 and an assay plate for the transformed cell TM182-p415CYC1 were prepared.
(§3) A 10,000 ppm solution of trans-zeatin (cytokinin) in DMSO was 50-fold diluted with a DOLU+Gul medium to 200 ppm. The 200 ppm trans-zeatin solution was added in an amount of 3/1,000 volume to each of the above-described preincubation dilution to prepare each preincubation dilution containing trans-zeatin at 0.6 ppm. The 0.6 ppm preincubation dilution was added in an amount of 100 μl to each wells of the assay plate for each transformed cell. The plates were incubated at 30° C. for 24 hours. Then, turbidity (OD 600) of each well was measured by using a plate reader. The activity of the test substance for inhibiting intracellular signaling from a plant-derived cytokinin receptor of a cell was tested by comparing the measured turbidity with the turbidity of the control well.
(§4) (Relative growth rate in test section to control section) [%]=[(Turbidity in test section)−(Turbidity in blank)]/[(Turbidity in control section)−(Turbidity in blank)]×100 (Activity of inhibiting intracellular signaling from plant-derived cytokinin receptor of cell) [%]=100−(Relative growth rate in test section to control section)
(§5) In all cases, the existing concentration of trans-zeatin was adjusted to 0.6 ppm and the existing concentration of a chemical substance was adjusted to 2 ppm.
(§6) In all cases, the existing concentration of trans-zeatin was adjusted to 0.6 ppm and the existing concentration of a chemical substance was adjusted to 2 […].

[2] = system: transformed cell TM182-p415CYC1; assay: Control growth test with transformed yeast cell TM182-p415CYC1 (toxicity to yeast); format: cell-based; conditions: trans-zeatin 0.6 ppm; chemical substance 2 ppm; 30° C., 24 hours; turbidity OD 600
Protocol: as §1, §2, §3, §4, §5, §6

[3] = system: Arabidopsis thaliana; assay: Root growth-promoting activity test (Example 9); format: in vivo; conditions: main root length vs control section, 22° C., 10 days; for activity at 5 ppm / activity at 10 ppm / activity at 2.5 ppm: Arabidopsis thaliana, 240 h; for activity at 10 ppm: test final concentration 10 ppm (concentration with highest root growth rate)
Protocol: (§7) Enshi standard medium having the following composition (see Table 10) was prepared. To cluster tubes was dispensed each 4 μl of a solution of a chemical substance in DMSO to a final concentration of 0.001 ppm to 10 ppm, and then, was dispensed each 600 μl of the sterilized Enshi standard medium. Then the resulting solution was well mixed. In each of the cluster tubes, 10-20 seeds of Arabidopsis thaliana were sown, and cultured at 22° C. for 10 days in the light. Then, the length of main roots (average main roots) generated from the seeds of Arabidopsis thaliana was measured. An average of eight repeats was determined, and a root growth rate was determined according to the following equation.
(§8) Root growth rate (%)=(Average main root length in chemical substance-treated section)/(Average main root length in control section)×100

[4] = system: Arabidopsis thaliana; assay: Root growth-promoting activity test (Example 22); format: in vivo; conditions: main root length vs control section, 22° C., 10 days
Protocol: as §7, with “18)” for “10)”
as §8
Enshi standard medium determined having the following composition (Table 18) was prepared. A DMSO solution of a chemical substance was dispensed by 4 μl to cluster tubes to a final concentration of 0.001 ppm to 10 ppm and the sterilized Enshi standard medium was dispensed by 600 μl and then the resulting solution was well mixed. 10-20 seeds of A. thaliana per cluster tube were sown in the cluster tubes. After culture at 22° C. for 10 days in bright light, the length of main roots (average main roots) took from seeds of A. thaliana was measured. An average of eight repeats was determined and the root growth rate was determined.
Root growth rate (%)=(Average main root length of chemical substance-treated section)/(Average main root length of control section)×100

[5] = test final concentration 5 ppm (concentration with highest root growth rate)
[6] = test final concentration 2.5 ppm (concentration with highest root growth rate)
[7] = test final concentration 5 ppm (highest root growth rate)
[8] = test final concentration 2.5 ppm (highest root growth rate)

Row | melting point [°C] | Structure (SMILES) | Relative growth rate (%) in test section of test substance to control section, Transformed cell TM182-CRE1 [1] [%] | Relative growth rate (%) in test section of test substance to control section, Transformed cell TM182-p415CYC1 [2] [%] | Activity (%) of test substance for inhibiting intracellular signaling from plant-derived cytokinin receptor of cell [1] [%] | also measured
1 | 154.4 | Clc1nc(-c2ccccc2)c2cccc(Cl)c2n1 [Ia1-11, 2,8-dichloro-4-phenylquinazoline] |  |  |  | 
2 | 160.3 | Clc1cc(Cl)c2nc(Cl)nc(-c3ccccc3)c2c1 [Ia1-12, 2,6,8-trichloro-4-phenylquinazoline] |  |  |  | 
3 | 165.9 | SCCNc1nc(-c2ccccc2)c2cc(Cl)ccc2n1 [Ic3-13, 6-chloro-2-(2-mercaptoethylamino)-4-phenylquinazoline] |  |  |  | activity at 10 ppm [3]: 140%
4 | 128.9 | CC(=O)SCCNc1nc(-c2ccccc2)c2cc(Cl)ccc2n1 [Ic3-14, 2-(2-acetylthioethylamino)-6-chloro-4-phenylquinazoline] |  |  |  | activity at 2.5 ppm [3, 6]: 126%
5 | 159.2 | Clc1ccc2nc(NCCSSCCNc3nc(-c4ccccc4)c4cc(Cl)ccc4n3)nc(-c3ccccc3)c2c1 [Ic3-15, bis[2-(6-chloro-4-phenyl-2-quinazolinyl)aminoethyl]disulfide] |  |  |  | activity at 5 ppm [3, 5]: 131%
6 | 252.1 | O=CNc1nc(-c2ccccc2)c2cc(Cl)ccc2n1 [Ic3-35, 6-chloro-2-formamido-4-phenylquinazoline] |  |  |  | activity at 10 ppm [3]: 144%; Root growth-promoting activity (root growth rate) [4, 8]: 134.0%
7 |  | COC(=O)CNc1nc(-c2ccccc2)c2cc(Cl)ccc2n1 [Ic3-42] | −0.7 | 111.5 | 100.7 | Root growth-promoting activity (root growth rate) ([3]; test final concentration 0.625 ppm (concentration with highest root growth rate)): 128.6%; Root growth-promoting activity (root growth rate) ([4]; test final concentration 0.625 ppm (highest root growth rate)): 128.6%
8 |  | COC(=O)CCNc1nc(-c2ccccc2)c2cc(Cl)ccc2n1 [Ic3-43] | 0.8 | 122.0 | 99.2 | Root growth-promoting activity (root growth rate) [3, 6]: 137.9%; Root growth-promoting activity (root growth rate) [4, 8]: 137.9%
9 |  | CC(CO)Nc1nc(-c2ccccc2)c2cc(Cl)ccc2n1 (centres unmarked) [Ic3-44] | 7.0 | 101.4 | 93.0 | Root growth-promoting activity (root growth rate) ([3]; test final concentration 1.25 ppm (concentration with highest root growth rate)): 126.5%; Root growth-promoting activity (root growth rate) ([4]; test final concentration 1.25 ppm (highest root growth rate)): 126.5%
10 |  | CCOCCCNc1nc(-c2ccccc2)c2cc(Cl)ccc2n1 [Ic3-46] | 1.3 | 92.2 | 98.7 | Root growth-promoting activity (root growth rate) [3, 6]: 121.6%; Root growth-promoting activity (root growth rate) [4, 8]: 121.6%
11 |  | OCCCNc1nc(-c2ccccc2)c2cccc(Cl)c2n1 [Ic11-1] | 2.2 | 114.5 | 97.8 | Root growth-promoting activity (root growth rate) [3, 5]: 143.9%; Root growth-promoting activity (root growth rate) [4, 7]: 143.9%
12 |  | OCCCNc1nc(-c2ccccc2)c2cc(Cl)cc(Cl)c2n1 [Ic12-1] | 2.8 | 106.3 | 97.2 | Root growth-promoting activity (root growth rate) [3, 6]: 184.6%; Root growth-promoting activity (root growth rate) [4, 8]: 184.6%
13 | 212.7 | Nc1nc(-c2ccccc2)c2cc(Cl)cc(Cl)c2n1 [Ic12-4, 2-amino-6,8-dichloro-4-phenylquinazoline] |  |  |  | 

Row | Structure (SMILES) | melting point [°C] | Relative growth rate (%) in test section of test substance to control section, Transformed cell TM182-CRE1 [1] [%] | Relative growth rate (%) in test section of test substance to control section, Transformed cell TM182-p415CYC1 [2] [%] | Activity (%) of test substance for inhibiting intracellular signaling from plant-derived cytokinin receptor of cell [1] [%] | also measured
14 | Clc1ccc2nc(Cl)nc(-c3ccccc3)c2c1 [Ia1-3, 2,6-dichloro-4-phenylquinazoline] | 166.2 | 5.5 | 113.9 |  | inhibition at 2 ppm [1]: 94.5%; activity at 5 ppm [3, 5]: 138%
15 | Clc1ccc2nc(NCc3ccco3)nc(-c3ccccc3)c2c1 [Ic3-16, 6-chloro-2-furfurylamino-4-phenylquinazoline] | 142 | 3.2 | 97.0 |  | inhibition at 2 ppm [1]: 96.8%; activity at 5 ppm [3, 5]: 155%; Root growth-promoting activity (root growth rate) [4, 7]: 155.3%
16 | CN(N)c1nc(-c2ccccc2)c2cc(Cl)ccc2n1 [Ic3-27, 6-chloro-2-(1-methylhydrazino)-4-phenylquinazoline] | 155.9 | 2.3 | 107.4 |  | inhibition at 2 ppm [1]: 97.7%; activity at 2.5 ppm [3, 6]: 128%
17 | CONc1nc(-c2ccccc2)c2cc(Cl)ccc2n1 [Ic3-32, 6-chloro-2-methoxyamino-4-phenylquinazoline] | 173.9 | 4.5 | 89.2 |  | inhibition at 2 ppm [1]: 95.5%; activity at 5 ppm [3, 5]: 123%
18 | OCCSc1nc(-c2ccccc2)c2cc(Cl)ccc2n1 [Ie3-1, 6-chloro-2-(2-hydroxyethylthio)-4-phenylquinazoline] | 124.4 | 2.3 | 110.7 |  | inhibition at 2 ppm [1]: 97.7%; activity at 5 ppm [3, 5]: 121%
